# From PMC5186412 (Future medicinal chemistry, 2015)
# Numbered stars: 1 amine (or outer) side, 2 acyl side, 3 side chain; on linkers, the order of the positions; unused ones are H or OH. Bridge positions count the residues as written; N and C are the ends. Square brackets hold non-standard residues; d marks the D form. Peptide text beside a SMILES is read from it. * marks the point of attachment. dLeu(3R-OH) = CC(C)[C@@H](O[*:3])[C@@H](N[*:1])C(=O)[*:2]; Gln(3S,4R-Me2) = C[C@H]([C@H](N)C(=O)O)[C@@H](C)C(N)=O; dTyr(βR-OMe) = CO[C@H](c1ccc(O)cc1)[C@@H](N)C(=O)O; Pip(4S-Cl) = O=C(O)[C@@H]1C[C@@H](Cl)CCN1; X6 = CCC(C)/C=C(C)/C=C\C(O)C(C)(O)C(=O)*; Abu(3R-NH2) = C[C@@H](N)[C@H](N)C(=O)O; NMeT = CN[C@H](C(=O)O)[C@@H](C)O
# Conditions: PAMPA
row,Compound,passive permeability (in words)
1,"CCC(C)/C=C(C)/C=C\C(O)C(C)(O)C(=O)NCC(=O)N[C@H](C(=O)N[C@H](C(=O)N[C@H](C(=O)N[C@H]1C(=O)N[C@H](COC)C(=O)NCC(=O)N[C@@H](C)C(=O)N(C)[C@@H]([C@@H](C)O)C(=O)N[C@H]([C@H](OC)c2ccc(O)cc2)C(=O)N2CC[C@H](Cl)C[C@H]2C(=O)O[C@@H]1C(C)C)[C@@H](C)[C@@H](C)C(N)=O)[C@@H](C)N)[C@@H](C)O (stereo partly drawn) [mirabamide C] (X6-GT[Abu(3R-NH2)][Gln(3S,4R-Me2)][dLeu(3R-OH)][dS](Me)GA[NMeT][dTyr(βR-OMe)][Pip(4S-Cl)]; ester 5-C)",poor passive permeability
2,tentoxin,measurable permeability
3,CC[C@@H](C)[C@@H]1NC(=O)CNC(=O)[C@@H](C)N(C)C(=O)[C@H](C(C)C)NC(=O)[C@H]([C@@H](C)O)N(C)C(=O)[C@H](C(C)C)NC(=O)[C@H]([C@@H](C)O)N(C)C(=O)[C@H](C(C)C)NC(=O)CNC(=O)[C@@H](Cc2ccccc2)N(C)C(=O)[C@H](C(C)C)NC(=O)[C@H](CO)NC(=O)[C@H](C(C)C)N(C)C(=O)[C@H](CO)N(C)C1=O [verrucamide B],poor passive permeability
4,destruxin B,moderate permeability
5,destruxin A,moderate permeability

# Same assay, conditions: PAMPA, 16 h
row,Compound,logPe
1,CC[C@H](C)[C@@H]1NC(=O)c2csc(n2)[C@@H](C)NC(=O)[C@H]2N=C(O[C@@H]2C)[C@H](C(C)C)NC(=O)c2csc(n2)[C@@H](Cc2ccccc2)NC(=O)[C@H]2N=C1O[C@@H]2C [Patellamide C],−4.7
2,destruxin B,−5.29
3,CC(C)[C@H]1C(=O)O[C@H](C(C)C)C(=O)N(C)[C@@H](C(C)C)C(=O)O[C@H](C(C)C)C(=O)N(C)[C@@H](C(C)C)C(=O)O[C@H](C(C)C)C(=O)N1C [Enniatin B],−4.7
4,destruxin E2 chlorohydrin,−7.35
5,desmethyldestruxin B,−6.67
6,CC(C)[C@H]1C(=O)N(C)[C@@H](C)C(=O)NCCC[C@H](NC(=O)/C=C/C=C/C=O)C(=O)N1C [sclerotiotide F],below the PAMPA assay’s detection limit
